Test results from patent US12048307B2, “Compositions, methods and uses for cleaning, disinfecting and/or sterilizing” (Collidion, Inc., priority 2017, dated 2024).

Test system: Bacillus subtilis (ATCC #19659) spores
Assay: B. subtilis spore viability assay, 15 minutes treatment, with or without serum
Assay type: cell-based
Details: spore suspension about 1×10^6 cfu/mL, 48 hours incubation at 37° C. on TSA, >500 = too many colonies to count
Protocol: To prepare stock cultures of pathogenic spores, 10 mL nutrient broth was inoculated using a stock culture of Bacillus subtilis (ATCC #19659) and incubated on an orbital shaker for 24±2 hours at approximately 150 rpm at 36±1° C. This culture was used to inoculate Tryptic Soy Agar (TSA) plates. Each plate was inoculated with 500 μL of broth culture and the inoculum spread with a sterile L spreader. In addition, the purity of this culture was verified by streaking on TSA plates and incubating plates at 36±1° C. for 24±2 hours. Each plate was wrapped with parafilm. inverted and incubated for 12-14 days at 36±1° C. Following incubation, spores were harvested by adding 10 mL cold sterile water to each plate, the growth removed from the plates using a spreader, and the resulting suspensions were transferred into 15 mL sterile conical tubes. The suspensions were centrifuged at 5,000 rpm (4,500×g) for approximately 10 minutes at room temperature. After removal of the supernatant, the spore pellet was washed by re-suspending pellet with 10 mL cold sterile water and centrifuged at 5,000 rpm (4,500×g) for approximately 10 minutes. This washing step was repeated two more times. The spore pellet was re-suspended with 10 mL sterile water and the spore suspension was stored at 2-5° C. until needed. The spore suspension was stained using stain and the spores examined under the microscope to assess quality of the spores. A minimum of five fields were examined and the ratio of the spores to vegetative cells (or sporangia) was determined. Percentage of spores versus vegetative cells were about 95% spores. Spore titer was determined by preparing serial dilutions, plating the dilutions on TSA plates, incubating plates for 24±2 hours at 36±1° C., and counting the number of colonies formed to determine the titer. The test culture was standardized by using phosphate buffer to achieve a final test culture microbe population of 1.0×10^6 cfu/mL.
Assay samples were set up with or without serum, such as, e.g., Tryptic Soy Broth (TSB) or Bovine Serum (BS). The purpose of the serum was to better simulate the organic load of blood and other tissue which tends to deactivate an antimicrobial agent. In general, assays were conducted by first incubating a pathogen spore sample with a composition disclosed herein for a specified treatment time period, optionally with serum, and then culturing the sample on growth medium to assess spore viability.
In one series of experiments, assays where the samples were treated with serum were set up to contain 100 μL of pathogen spore suspension (containing about 1×10^6 cfu/mL), 50 μL of serum, and 850 μL of a composition described in Example 1. […] The inoculated plates were then incubated at 37° C. for 48 hours and the number of bacterial colonies, if any, counted. […]

| Compound | Count (number of bacterial colonies), 5% Serum | Count (number of bacterial colonies), No Serum |
| --- | --- | --- |
| O=CCCCC=O [0.5% Glutaraldehyde, Glutaraldehyde] | >500 | >500 |
| hypochlorous acid [97 ppm HOCl] | >500 | 0 |
